In patent publication US8680012B2, “4-phenyl-pyrane-3,5-diones,4-phenyl-thiopyrane-3,6-diones and cyclohexanetriones as novel herbicides” (Syngenta Crop Protection LLC, priority 2006, dated 2014) one finds pest or weed control data, which are given here for 11 molecules.

Holding throughout (format): in vivo
Assay [1] relates to Alopecurus myosuroides (ALOMY). Description: Example B pre-emergence herbicidal activity, glasshouse pot test. Conditions: 312 h, rate 250 g/ha, evaluated after 13 days, read-out: Pre-emergence activity ALOMY (100=total damage to plant; 0=no damage to plant). In a few lines: (§1)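 Damage rated 13 days after treatment on a 0 (no damage) to 100 (total damage) scale. Spray of acetone/water (50:50) with 0.5% Tween 20 went onto soil-sown pots at day 1 (pre-emergence) or day 8 (post-emergence); glasshouse kept at 24/16 °C, 14 h light, 65% humidity.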

In assay [2] the test system is Avena fatua (AVEFA). Described as above. As to conditions: 312 h, rate 250 g/ha, evaluated after 13 days, read-out: Pre-emergence activity AVEFA (100=total damage to plant; 0=no damage to plant). In short, it runs like this:
as §1

Assay [3] deals with Echinochloa crus-galli (ECHCG). Described as above. As to conditions: 312 h, rate 250 g/ha, evaluated after 13 days, read-out: Pre-emergence activity ECHCG (100=total damage to plant; 0=no damage to plant). In short, it runs like this: as §1
Assay [4] deals with Setaria faberi (SETFA). The description is as above. Conditions: 312 h, rate 250 g/ha, evaluated after 13 days, read-out: Pre-emergence activity SETFA (100=total damage to plant; 0=no damage to plant). In short, it runs like this:
as §1

The subject of assay [5] is Amaranthus retroflexus (AMARE). The assay is described as above. Conditions: 312 h, rate 250 g/ha, evaluated after 13 days, read-out: Pre-emergence activity AMARE (100=total damage to plant; 0=no damage to plant). In short, it runs like this:
as §1

The subject of assay [6] is Alopecurus myosuroides (ALOMY). The assay can be described thus: Example B post-emergence herbicidal activity, glasshouse pot test. Conditions: 312 h, rate 250 g/ha, evaluated after 13 days, read-out: Post-emergence activity ALOMY (100=total damage to plant; 0=no damage to plant). In short, it runs like this:
as §1

For assay [7], the system named is Avena fatua (AVEFA). The description is as above. As to conditions: 312 h, rate 250 g/ha, evaluated after 13 days, read-out: Post-emergence activity AVEFA (100=total damage to plant; 0=no damage to plant). In a few lines:
as §1

Assay [8] deals with Echinochloa crus-galli (ECHCG). The assay is described as above. As to conditions: 312 h, rate 250 g/ha, evaluated after 13 days, read-out: Post-emergence activity ECHCG (100=total damage to plant; 0=no damage to plant). In short, it runs like this: as §1
The test system of assay [9] is Setaria faberi (SETFA). The assay is described as above. Conditions: 312 h, rate 250 g/ha, evaluated after 13 days, read-out: Post-emergence activity SETFA (100=total damage to plant; 0=no damage to plant). In a few lines:
as §1

For assay [10], the system named is Amaranthus retroflexus (AMARE). The assay is described as above. Conditions: 312 h, rate 250 g/ha, evaluated after 13 days, read-out: Post-emergence activity AMARE (100=total damage to plant; 0=no damage to plant). In a few lines:
as §1

As to `Cc1cc(C)c(-c2ccc(Cl)cc2F)c(C)c1C1=C(O)C(C)(C)OC(C)(C)C1=O` [Compound A-102], the pest or weed control at 250 g/ha was 30% in [1]; 0% in the assay on Avena fatua (AVEFA) [2]; 90% in assay [3]; 90% with Setaria faberi (SETFA) [4]; 0% in assay [5]; 20% in [6]. The pest or weed control at 250 g/ha in the assay with Avena fatua (AVEFA) [7] came to 0%; in [8] it was 70%; with Setaria faberi (SETFA) [9] it was 30%; in assay [10], 0%.

On to `CCc1ccc(-c2ccc(Cl)cc2)cc1C1=C(O)[C@@]2(C)CC[C@](C)(O2)C1=O` (single isomer, unassigned) [Compound A-83], for which the pest or weed control at 250 g/ha stood at 50% in [1]; 40% in the assay on Avena fatua (AVEFA) [2]; 90% in [3]; 100% in the assay with Setaria faberi (SETFA) [4]; 0% in assay [5]; 80% in [6]. Moreover, the pest or weed control at 250 g/ha was 80% in the assay with Avena fatua (AVEFA) [7], 100% in assay [8], 100% in the assay on Setaria faberi (SETFA) [9] and 0% in [10].

For the molecule `CCc1ccc(-c2cnc(Cl)cc2C)cc1C1=C(O)C(C)(C)OC(C)(C)C1=O` [Compound A-73], the pest or weed control at 250 g/ha in [1] came out at 0%; in the assay on Avena fatua (AVEFA) [2], 0%; in [3] it was 10%; in the assay with Setaria faberi (SETFA) [4], 20%; in assay [5] it was 0%; in [6], 20%. The pest or weed control at 250 g/ha in the assay on Avena fatua (AVEFA) [7] stood at 0%; in assay [8], 90%; in the assay with Setaria faberi (SETFA) [9] it was 90%; in [10] it was 0%.

As to `CCc1ccc(-c2ccc(Cl)nc2Cl)cc1C1=C(O)C(C)(C)OC(C)(C)C1=O` [Compound A-75], the pest or weed control at 250 g/ha came to 30% in assay [1]; 30% in the assay with Avena fatua (AVEFA) [2]; 90% in [3]; 90% with Setaria faberi (SETFA) [4]; 0% in assay [5]; 90% in [6]. In addition, the pest or weed control at 250 g/ha in the assay with Avena fatua (AVEFA) [7] stood at 90%; in [8], 100%; in the assay on Setaria faberi (SETFA) [9], 100%; in assay [10], 0%.

`CCc1ccc(-c2ccc(Cl)c(F)c2Cl)cc1C1=C(O)C(C)(C)OC(C)(C)C1=O` [Compound A-138]: the pest or weed control at 250 g/ha in [1] stood at 90%; in the assay on Avena fatua (AVEFA) [2] it was 90%; in [3] it was 100%; in the assay with Setaria faberi (SETFA) [4], 100%; in assay [5], 20%; in assay [6] it was 100%. The pest or weed control at 250 g/ha came out at 100% with Avena fatua (AVEFA) [7], 100% in [8], 100% in the assay with Setaria faberi (SETFA) [9] and 60% in assay [10].

Take `CCc1ccc(-c2ccc(Cl)c(Cl)c2F)cc1C1=C(O)C(C)(C)OC(C)(C)C1=O` [Compound A-155]: the pest or weed control at 250 g/ha in assay [1] is 50%; in the assay on Avena fatua (AVEFA) [2], 0%; in assay [3], 100%; in the assay on Setaria faberi (SETFA) [4], 100%; in [5], 0%; in [6], 100%. In addition, the pest or weed control at 250 g/ha was found to be 90% in the assay on Avena fatua (AVEFA) [7], 100% in [8], 100% in the assay with Setaria faberi (SETFA) [9] and 40% in assay [10].

For `CCc1ccc(-c2ccc(Cl)cc2C(F)(F)F)cc1C1=C(O)C(C)(C)OC(C)(C)C1=O` [Compound A-72], the pest or weed control at 250 g/ha was found to be 0% in assay [1]; 0% with Avena fatua (AVEFA) [2]; 40% in assay [3]; 0% with Setaria faberi (SETFA) [4]; 0% in assay [5]; 20% in assay [6]. The pest or weed control at 250 g/ha in the assay on Avena fatua (AVEFA) [7] was determined as 0%; in [8], 80%; in the assay with Setaria faberi (SETFA) [9], 80%; in [10], 60%.

Take `CCOC[C@]12CC[C@H](O1)C(=O)C(c1cc(-c3ccc(Cl)c(Cl)c3)ccc1CC)=C2O` (single isomer, unassigned) [Compound A-129]: the pest or weed control at 250 g/ha in assay [1] turned out to be 20%; in the assay with Avena fatua (AVEFA) [2], 30%; in assay [3] it was 40%; in the assay on Setaria faberi (SETFA) [4], 90%; in assay [5] it was 0%; in [6], 70%. Moreover, the pest or weed control at 250 g/ha amounted to 80% in the assay with Avena fatua (AVEFA) [7], 90% in assay [8], 80% with Setaria faberi (SETFA) [9] and 0% in assay [10].

With `CCc1ccc(-c2ccc(Cl)c([N+](=O)[O-])c2)cc1C1=C(O)C(C)(C)OC(C)(C)C1=O` [Compound A-136], the pest or weed control at 250 g/ha was determined as 20% in [1]; 80% in the assay with Avena fatua (AVEFA) [2]; 90% in [3]; 30% with Setaria faberi (SETFA) [4]; 0% in assay [5]; 80% in assay [6]. Moreover, the pest or weed control at 250 g/ha in the assay on Avena fatua (AVEFA) [7] is 100%; in assay [8], 100%; with Setaria faberi (SETFA) [9], 70%; in [10], 0%.

As to `CCc1ccc(-c2ccc(Cl)cc2)cc1C1=C(O)[C@@]2(CC)C=C[C@H](O2)C1=O` [Compound A-63], the pest or weed control at 250 g/ha in assay [1] worked out at 0%; in the assay with Avena fatua (AVEFA) [2], 0%; in [3], 0%; in the assay on Setaria faberi (SETFA) [4] it was 30%; in assay [5], 0%; in [6] it was 90%. The pest or weed control at 250 g/ha with Avena fatua (AVEFA) [7] turned out to be 60%; in assay [8], 100%; in the assay with Setaria faberi (SETFA) [9], 100%; in assay [10] it was 0%.

For the molecule `CCOC[C@]12CC[C@H](O1)C(=O)C(c1cc(-c3ccc(Cl)c(F)c3)ccc1CC)=C2O` (single isomer, unassigned) [Compound A-126], the pest or weed control at 250 g/ha in [1] was found to be 30%; in the assay with Avena fatua (AVEFA) [2], 90%; in assay [3], 80%; in the assay with Setaria faberi (SETFA) [4], 100%; in assay [5], 0%; in assay [6] it was 70%. Further, the pest or weed control at 250 g/ha is 90% with Avena fatua (AVEFA) [7], 100% in [8], 100% in the assay on Setaria faberi (SETFA) [9] and 0% in [10].
